Test results from the NIST ThermoML archive (doi:10.1016/j.jct.2018.11.004).
Values joined by “and” are separate entries in the source; they are usually repeats but may differ in a detail not shown here. Equal values may be shown once.

Columns and labels:
[1] = Molar enthalpy of transition or fusion; conditions: DSC
[2] = for Triple point temperature: DSC
[3] = molar heat capacity at constant pressure; conditions: 100 kPa, Extra sensitive DSC

CC(C)[C@@H]1CC[C@@H](C)C[C@H]1O (racemic) [DL-menthol]
Conditions | Molar enthalpy of transition or fusion, [1] [kcal/mol] | Triple point temperature, [2] [K]
Crystal 1 | 3.27 | 305.7
Metastable crystal | 2.37 | 300.7

Conditions | molar heat capacity at constant pressure [J/K/mol] | vapor or sublimation pressure
[2], 273.65 K, Crystal 1 | – | 0.000259 kPa
[2], 273.66 K, Crystal 1 | – | 0.000261 kPa
[2], 277.57 K, Crystal 1 | – | 0.000442 kPa
[2], 277.59 K, Crystal 1 | – | 0.000442 kPa
[2], 277.6 K, Crystal 1 | – | 0.00044 kPa
[2], 278.16 K, Crystal 1 | – | 0.00048 kPa and 0.000479 kPa and 0.000477 kPa
[2], 278.28 K, Metastable crystal | – | 0.000597 kPa and 0.000607 kPa
[2], 278.29 K, Metastable crystal | – | 0.00061 kPa
[2], 282.56 K, Crystal 1 | – | 0.000853 kPa
[2], 282.57 K, Crystal 1 | – | 0.000852 kPa
[2], 282.59 K, Crystal 1 | – | 0.000854 kPa
[2], 283.12 K, Metastable crystal | – | 0.00109 kPa
[2], 283.13 K, Metastable crystal | – | 0.0011 kPa and 0.001093 kPa
[2], 283.15 K, Crystal 1 | – | 0.000922 kPa
[2], 283.16 K, Crystal 1 | – | 0.000921 kPa and 0.000926 kPa
[2], 287.34 K, Crystal 1 | – | 0.001562 kPa
[2], 287.43 K, Crystal 1 | – | 0.001579 kPa
[2], 287.59 K, Crystal 1 | – | 0.001607 kPa
[2], 288.14 K, Metastable crystal | – | 0.002021 kPa and 0.00201 kPa
[2], 288.15 K, Metastable crystal | – | 0.00201 kPa
[2], 288.16 K, Crystal 1 | – | 0.001734 kPa and 0.001736 kPa
[2], 292.79 K, Crystal 1 | – | 0.003041 kPa
[2], 292.84 K, Crystal 1 | – | 0.003054 kPa
[2], 292.9 K, Crystal 1 | – | 0.003078 kPa
[2], 293.14 K, Crystal 1 | – | 0.003173 kPa and 0.00318 kPa
[2], 293.14 K, Metastable crystal | – | 0.003615 kPa and 0.003596 kPa and 0.003627 kPa
[2], 293.14 K, Metastable liquid | – | 0.003971 kPa and 0.003966 kPa and 0.003969 kPa
[2], 293.15 K, Crystal 1 | – | 0.003183 kPa
[2], 293.54 K, Metastable liquid | – | 0.00414 kPa and 0.004147 kPa
[2], 293.55 K, Metastable liquid | – | 0.004144 kPa
[2], 298.13 K, Metastable liquid | – | 0.006551 kPa
[2], 298.14 K, Metastable crystal | – | 0.00634 kPa and 0.006361 kPa and 0.006351 kPa
[2], 298.14 K, Metastable liquid | – | 0.006556 kPa and 0.00655 kPa
[2], 298.16 K, Crystal 1 | – | 0.005733 kPa [middle of 4 runs]
[2], 298.17 K, Crystal 1 | – | 0.005739 kPa
[2], 298.18 K, Crystal 1 | – | 0.005738 kPa
[2], 298.45 K, Metastable liquid | – | 0.006763 kPa
[2], 298.46 K, Metastable liquid | – | 0.00678 kPa
[2], 298.47 K, Metastable liquid | – | 0.006777 kPa
[2], 303.13 K, Metastable liquid | – | 0.01059 kPa
[2], 303.14 K, Crystal 1 | – | 0.01009 kPa and 0.0101 kPa
[2], 303.14 K, Metastable liquid | – | 0.0106 kPa
[2], 303.15 K, Crystal 1 | – | 0.0101 kPa
[2], 303.17 K, Crystal 1 | – | 0.01013 kPa
[2], 303.19 K, Crystal 1 | – | 0.01017 kPa
[2], 303.2 K, Crystal 1 | – | 0.01019 kPa
[2], 303.42 K, Metastable liquid | – | 0.01089 kPa and 0.01091 kPa
[2], 303.43 K, Metastable liquid | – | 0.01091 kPa
[2], 308.14 K, Liquid | – | 0.01683 kPa and 0.01682 kPa and 0.01681 kPa
[2], 308.42 K, Liquid | – | 0.01728 kPa
[2], 308.43 K, Liquid | – | 0.01728 kPa and 0.01729 kPa
[2], 313.42 K, Liquid | – | 0.0268 kPa
[2], 313.43 K, Liquid | – | 0.02682 kPa
[2], 313.44 K, Liquid | – | 0.02686 kPa
[2], 318.39 K, Liquid | – | 0.04089 kPa
[2], 318.4 K, Liquid | – | 0.04092 kPa
[2], 318.42 K, Liquid | – | 0.041 kPa
[2], 323.41 K, Liquid | – | 0.06149 kPa and 0.06146 kPa
[2], 328.43 K, Liquid | – | 0.09086 kPa
[2], 333.43 K, Liquid | – | 0.1322 kPa
[2], 333.44 K, Liquid | – | 0.1323 kPa
[2], 338.35 K, Liquid | – | 0.188 kPa
[2], 338.36 K, Liquid | – | 0.188 kPa
[2], 343.2 K, Liquid | – | 0.2626 kPa
[2], 343.21 K, Liquid | – | 0.2628 kPa
[2], 348.1 K, Liquid | – | 0.3638 kPa
[2], 348.11 K, Liquid | – | 0.3638 kPa
[2], 353.03 K, Liquid | – | 0.4979 kPa
[2], 362.97 K, Liquid | – | 0.9031 kPa
[3], 265 K, Crystal 1 | 217.6 | –
[3], 270 K, Crystal 1 | 221.3 | –
[3], 270 K, Metastable crystal | 217.5 | –
[3], 275 K, Crystal 1 | 225.3 | –
[3], 275 K, Metastable crystal | 219.5 | –
[3], 280 K, Crystal 1 | 229.5 | –
[3], 280 K, Metastable crystal | 223.1 | –
[3], 285 K, Crystal 1 | 234.2 | –
[3], 285 K, Metastable crystal | 229 | –
[3], 315.4 K, Liquid | 377.3 | –
[3], 320 K, Liquid | 384.2 | –
[3], 325 K, Liquid | 392 | –
[3], 330 K, Liquid | 399.8 | –
[3], 335 K, Liquid | 406.9 | –
[3], 340 K, Liquid | 412.7 | –
[3], 345 K, Liquid | 418.1 | –
[3], 350 K, Liquid | 423.7 | –
[3], 355 K, Liquid | 429 | –
